Drawing on patent US11111247B2, “Pyrazolopyrimidine compounds and uses thereof” (Incyte Corporation, priority 2018, dated 2021), this text covers IC50 for 13 molecules.

Where two headings read alike, the source gives them in different places. Bounds are passed on as bounds.

In one assay the target is FGFR3 (UP) (Homo sapiens (Human), UniProt P22607). Kind of assay: FGFR Enzymatic Assay, FGFR3 un-phosphorylated.
A further assay deals with ALK2 (Homo sapiens (Human), UniProt Q04771). In words: ALK2 Cellular Assay (phospho SMAD1 HTRF, BMP-7 stimulated HeLa cells). The conditions noted are these: HeLa cells, 200 ng/ml BMP-7, Phospho SMAD1 (S463/S465) HTRF; read-out: ALK2 Cellular Assay PSMAD. The assay is classed as cell-based. The procedure: HeLa cells were cultured in MEM media with 10% FBS. […] HeLa cells were plated in 96 well flat bottomed plate at 50,000 cells per well and incubated overnight. Next day, media was removed and 50 μL of fresh complete media was added. 5 μL compound was added to cells (3 μM final concentration at highest) and incubated for 60 min at 37° C. 200 ng/ml BMP-7 was added and incubated for 30 min at 37° C. After incubation, the media was removed, washed 2×PBS, and proceeded with HTRF kit according to Cisbio HTRF kit instructions for measuring the Phospho SMAD1 (S463/S465). Finally, both the donor and acceptor were added into 384 well plates and incubated at room temperature overnight and the HTRF signal was measured via Pherastar the next day.
ALK2, sequence (Q04771 21-509): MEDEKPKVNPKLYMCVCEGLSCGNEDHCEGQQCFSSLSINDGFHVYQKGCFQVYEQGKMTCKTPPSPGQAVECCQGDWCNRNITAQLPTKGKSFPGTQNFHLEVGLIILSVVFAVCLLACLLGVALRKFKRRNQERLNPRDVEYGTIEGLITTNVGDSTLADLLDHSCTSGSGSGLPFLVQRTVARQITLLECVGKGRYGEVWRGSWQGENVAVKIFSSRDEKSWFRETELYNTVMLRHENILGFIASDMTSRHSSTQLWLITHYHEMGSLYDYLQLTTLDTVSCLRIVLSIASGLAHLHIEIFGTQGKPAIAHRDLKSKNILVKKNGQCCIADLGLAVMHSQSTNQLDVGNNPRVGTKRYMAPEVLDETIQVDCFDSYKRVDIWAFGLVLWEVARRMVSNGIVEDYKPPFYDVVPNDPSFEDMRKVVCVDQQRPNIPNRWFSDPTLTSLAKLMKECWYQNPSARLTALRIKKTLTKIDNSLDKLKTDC

The next assay has as its target FGFR1 (UP) (Homo sapiens (Human), UniProt P11362). In words: FGFR Enzymatic Assay, FGFR1 un-phosphorylated.
In another assay the target is FGFR2 (UP) (Homo sapiens (Human), UniProt P21802). In words: FGFR Enzymatic Assay, FGFR2 un-phosphorylated.
FGFR2 (UP), sequence (P21802 22-821): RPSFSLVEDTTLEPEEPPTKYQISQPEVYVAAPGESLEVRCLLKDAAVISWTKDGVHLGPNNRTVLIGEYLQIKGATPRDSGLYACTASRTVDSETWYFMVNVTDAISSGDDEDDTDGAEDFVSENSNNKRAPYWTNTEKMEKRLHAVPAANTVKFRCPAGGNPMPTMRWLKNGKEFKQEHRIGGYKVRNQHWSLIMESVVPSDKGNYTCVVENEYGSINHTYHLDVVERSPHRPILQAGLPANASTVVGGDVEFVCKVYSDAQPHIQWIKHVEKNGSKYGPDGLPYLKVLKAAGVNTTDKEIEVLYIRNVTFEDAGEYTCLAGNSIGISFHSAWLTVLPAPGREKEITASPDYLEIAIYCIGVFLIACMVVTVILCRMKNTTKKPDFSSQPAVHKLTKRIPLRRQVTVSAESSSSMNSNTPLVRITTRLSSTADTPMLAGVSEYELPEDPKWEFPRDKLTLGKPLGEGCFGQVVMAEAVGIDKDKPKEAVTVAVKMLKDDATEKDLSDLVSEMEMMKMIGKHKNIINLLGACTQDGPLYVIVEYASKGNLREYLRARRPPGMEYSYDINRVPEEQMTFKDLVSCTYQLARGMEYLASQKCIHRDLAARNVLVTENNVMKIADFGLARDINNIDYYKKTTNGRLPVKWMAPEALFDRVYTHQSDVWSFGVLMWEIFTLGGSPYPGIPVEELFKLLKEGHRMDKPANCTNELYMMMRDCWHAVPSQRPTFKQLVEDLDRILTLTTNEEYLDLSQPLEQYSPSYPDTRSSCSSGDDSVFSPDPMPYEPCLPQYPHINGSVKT
In another assay the target is ALK2 (aa 147-end) (Homo sapiens (Human), UniProt Q04771). Kind of assay: ALK2 HTRF Assay. It counts as biochemical.
ALK2 (aa 147-end), sequence (Q04771 147-509): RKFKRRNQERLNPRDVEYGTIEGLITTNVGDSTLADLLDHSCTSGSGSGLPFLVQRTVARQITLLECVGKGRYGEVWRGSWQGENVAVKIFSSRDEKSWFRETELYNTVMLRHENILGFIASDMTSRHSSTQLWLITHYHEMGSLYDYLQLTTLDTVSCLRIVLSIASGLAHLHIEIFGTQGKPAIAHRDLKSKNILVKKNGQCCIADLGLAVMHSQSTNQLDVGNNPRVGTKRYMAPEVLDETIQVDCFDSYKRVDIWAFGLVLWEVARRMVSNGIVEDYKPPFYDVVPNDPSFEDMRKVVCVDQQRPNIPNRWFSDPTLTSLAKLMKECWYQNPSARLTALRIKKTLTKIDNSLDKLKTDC
For the next assay, the system named is RT112 cells. In words: Luminescent Viability Assay (LVA, FGFR3). It counts as cell-based. The conditions noted are these: Homo sapiens, RT-112, 72 h, 3 days, CellTiter-Glo. The procedure: RT112 cells were purchased from ATCC (Manassas, Va.) and maintained in RPMI, 10% FBS (Gibco/Life Technologies). To measure the effect of test compounds on the viability of cells, the cells were plated with RPMI 10% FBS (5×10^3 cells/well/in 50 μL) into black 96-well Greiner polystyrene in the presence or absence of 50 μl of a concentration range of test compounds. After 3 days, 100 μl of CellTiter-Glo Reagent (Promega) was added. Luminescence was read with a TopCount (PerkinElmer). IC50 determination was performed by fitting the curve of percent inhibition versus the log of the inhibitor concentration using the GraphPad Prism 5.0 software.

A further assay addresses FGFR2 (P) (Homo sapiens (Human), UniProt P21802). In words: FGFR Enzymatic Assay, FGFR2 phosphorylated. The conditions noted are these: FGFR2 (P) IC50 (nM), phosphorylated enzyme, ATP near or below Km.
Setting [1] is: read-out: ALK2 3 μM IC50, 3 uM ATP.
[2] abbreviates: read-out: ALK2 100 μM IC50, 100 uM ATP.
The mark [3] stands for this setting: read-out: ALK2 1 mM IC50, 1 mM ATP.
Where [4] appears, read: read-out: FGFR3 (UP) IC50, un-phosphorylated enzyme, ATP near or below Km.
Where [5] appears, read: read-out: FGFR1 (UP) IC50, un-phosphorylated enzyme, ATP near or below Km.

FGFR3 (UP), sequence (P22607 23-806): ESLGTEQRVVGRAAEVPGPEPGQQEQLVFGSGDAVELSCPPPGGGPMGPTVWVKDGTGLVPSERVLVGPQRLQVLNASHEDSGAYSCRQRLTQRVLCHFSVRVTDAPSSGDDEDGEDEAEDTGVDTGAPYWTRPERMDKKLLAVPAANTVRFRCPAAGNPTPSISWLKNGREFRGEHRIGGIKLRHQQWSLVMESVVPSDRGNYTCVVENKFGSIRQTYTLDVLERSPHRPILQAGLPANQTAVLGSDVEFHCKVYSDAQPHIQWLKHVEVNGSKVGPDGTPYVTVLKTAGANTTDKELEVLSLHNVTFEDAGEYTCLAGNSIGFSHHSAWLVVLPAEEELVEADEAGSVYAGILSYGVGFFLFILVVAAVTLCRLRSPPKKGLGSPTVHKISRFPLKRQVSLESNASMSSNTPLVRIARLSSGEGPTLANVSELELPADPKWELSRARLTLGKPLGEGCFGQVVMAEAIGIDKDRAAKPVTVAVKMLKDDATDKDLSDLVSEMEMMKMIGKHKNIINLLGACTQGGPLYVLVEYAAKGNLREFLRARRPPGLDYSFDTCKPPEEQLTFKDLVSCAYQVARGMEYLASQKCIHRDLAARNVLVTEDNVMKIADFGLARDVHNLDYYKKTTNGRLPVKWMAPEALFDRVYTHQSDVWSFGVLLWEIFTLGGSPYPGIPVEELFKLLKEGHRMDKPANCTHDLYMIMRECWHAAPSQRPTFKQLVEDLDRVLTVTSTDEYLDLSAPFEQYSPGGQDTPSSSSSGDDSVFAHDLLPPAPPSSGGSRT
FGFR1 (UP), sequence (P11362 22-822): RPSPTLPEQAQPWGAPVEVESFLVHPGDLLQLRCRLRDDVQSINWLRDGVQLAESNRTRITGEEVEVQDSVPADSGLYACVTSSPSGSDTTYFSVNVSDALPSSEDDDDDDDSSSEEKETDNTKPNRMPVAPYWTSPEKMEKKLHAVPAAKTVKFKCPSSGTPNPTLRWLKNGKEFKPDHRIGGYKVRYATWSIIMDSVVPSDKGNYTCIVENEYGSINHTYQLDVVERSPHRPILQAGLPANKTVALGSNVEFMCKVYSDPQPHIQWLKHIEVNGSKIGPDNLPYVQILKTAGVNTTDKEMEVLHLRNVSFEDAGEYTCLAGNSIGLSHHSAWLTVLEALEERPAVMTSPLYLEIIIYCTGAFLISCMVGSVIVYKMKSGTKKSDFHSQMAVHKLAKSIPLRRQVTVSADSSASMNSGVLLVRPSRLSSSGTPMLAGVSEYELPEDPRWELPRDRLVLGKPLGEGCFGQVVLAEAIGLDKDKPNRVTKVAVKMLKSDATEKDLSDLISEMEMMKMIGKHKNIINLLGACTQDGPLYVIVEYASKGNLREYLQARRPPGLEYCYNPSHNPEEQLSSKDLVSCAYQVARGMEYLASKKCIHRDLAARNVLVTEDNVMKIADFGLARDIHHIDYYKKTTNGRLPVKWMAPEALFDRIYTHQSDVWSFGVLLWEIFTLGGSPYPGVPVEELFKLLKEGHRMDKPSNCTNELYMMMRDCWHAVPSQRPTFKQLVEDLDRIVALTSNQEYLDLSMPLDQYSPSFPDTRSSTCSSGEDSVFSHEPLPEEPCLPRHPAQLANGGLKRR
FGFR2 (P), sequence (P21802 22-821): as the sequence (P21802 22-821) above
Experimental for FGFR1 (UP): (§1) The inhibitor potency of the exemplified compounds was determined in an enzyme discontinuous assay that measures peptide phosphorylation using FRET measurements to detect product formation. Inhibitors were serially diluted in DMSO and a volume of 0.2 μL was transferred to the wells of a 384-well plate. For the isoforms of FGFR (−1, −2, −3 wild-type and mutant isoforms, −4) including phosphorylated (P) and un-phosphorylated (UP) proteins, a 5 μL/well volume of enzyme diluted in assay buffer (50 mM HEPES, 10 mM MgCl2, 1 mM EGTA, 0.01% Tween-20, 5 mM DTT, pH 7.5) was added to the plate and pre-incubated with inhibitor for 5 to 15 minutes at ambient temperature. Appropriate controls (enzyme blank and enzyme with no inhibitor) were included on the plate. The reaction was initiated by the addition of a 5 μL/well volume containing both biotinylated [sequence] […] The plate was allowed to equilibrate for −10 minutes at ambient temperature before scanning on a PheraStar plate reader (BMG Labtech) instrument.
(§2) Either GraphPad prism or XLfit was used to analyze the data. The IC50 values were derived by fitting the data to a four parameter logistic equation producing a sigmoidal dose-response curve with a variable Hill coefficient. Prism equation: Y=Bottom+(Top−Bottom)/(1+10^((LogIC50−X)*Hill slope)); XLfit equation: Y=(A+((B−A)/(1+((X/C)^D)))) where X is the logarithm of inhibitor concentration and Y is the response.
Experimental for FGFR3 (UP): as §1, §2

Consider `C[C@@H]1CN(c2ccc(-c3n[nH]c4cnc(N5[C@H](C)CN(C(=O)OCCF)C[C@@H]5C)nc34)cn2)CCN1` [Example 12, 2-Fluoroethyl (3R,5S)-3,5-dimethyl-4-(3-(6-((R)-3-methylpiperazin-1-yl)pyridin-3-yl)-1H-pyrazolo[4,3-d]pyrimidin-5-yl)piperazine-1-carboxylate], for which the IC50 at FGFR3 (UP) was 100 to 500 nM; at ALK2, below 100 nM; at FGFR1 (UP), 500 to 2000 nM; at FGFR2 (UP), 100 to 500 nM; at ALK2 (aa 147-end) (setting [1]), below 100 nM; at ALK2 (aa 147-end) (setting [2]) it was below 100 nM. For the same molecule, the IC50 at ALK2 (aa 147-end) (setting [3]) is below 100 nM.
For `C[C@@H]1CN(c2ccc(-c3n[nH]c4cnc(N5CC6CCC5CN6C(=O)N5CCCC5)nc34)cn2)CCN1` (stereo partly drawn) [Example 20, (5-(3-(6-((R)-3-Methylpiperazin-1-yl)pyridin-3-yl)-1H-pyrazolo[4,3-d]pyrimidin-5-yl)-2,5-diazabicyclo[2.2.2]octan-2-yl)(pyrrolidin-1-yl)methanone], the IC50 at FGFR3 (UP) (setting [4]) is above 2000 nM; at ALK2 it was 100 to 500 nM; against FGFR1 (UP) it was 500 to 2000 nM; at FGFR2 (UP) it was 500 to 2000 nM; against ALK2 (aa 147-end) (ALK2 1 mM IC50, 1 mM ATP), 100 to 500 nM; on ALK2 (aa 147-end) (setting [1]), below 100 nM. Besides, the IC50 at ALK2 (aa 147-end) (setting [2]) was below 100 nM.
On to `COC(=O)N1C[C@@H](C)N(c2ncc3[nH]nc(-c4ccc(N5CCN(C)CC5)c(F)c4)c3n2)[C@@H](C)C1` [Example 23, Methyl (3R,5S)-4-(3-(3-fluoro-4-(4-methylpiperazin-1-yl)phenyl)-1H-pyrazolo[4,3-d]pyrimidin-5-yl)-3,5-dimethylpiperazine-1-carboxylate], for which the IC50 at FGFR3 (UP) is 100 to 500 nM; on ALK2 it was 100 to 500 nM; at FGFR1 (UP) it was 100 to 500 nM; against FGFR2 (UP) it was 100 to 500 nM; on ALK2 (aa 147-end) (ALK2 1 mM IC50, 1 mM ATP), 100 to 500 nM; at ALK2 (aa 147-end) (setting [1]) it was below 100 nM. At ALK2 (aa 147-end) (setting [2]), the IC50 is below 100 nM.
Consider `COCC(=O)N1C[C@@H](C)N(c2ncc3[nH]nc(-c4ccc(N5CCN[C@H](C)C5)nc4)c3n2)[C@@H](C)C1` [Example 6, 1-((3R,5S)-3,5-Dimethyl-4-(3-(6-((R)-3-methylpiperazin-1-yl)pyridin-3-yl)-1H-pyrazolo[4,3-d]pyrimidin-5-yl)piperazin-1-yl)-2-methoxyethan-1-one], for which the IC50 was 500 to 2000 nM against FGFR3 (UP); 100 to 500 nM on ALK2; above 2000 nM at FGFR1 (UP) (setting [5]); 500 to 2000 nM against FGFR2 (UP); below 100 nM on ALK2 (aa 147-end) (setting [1]); below 100 nM at ALK2 (aa 147-end) (setting [2]). The IC50 at ALK2 (aa 147-end) (setting [3]) is below 100 nM.
As to `C[C@@H]1CN(c2ccc(-c3n[nH]c4cnc(N5[C@H](C)CN(C(=O)N6CCC(F)C6)C[C@@H]5C)nc34)cn2)CCN1` (stereo partly drawn) [Example 10, ((3R,5S)-3,5-Dimethyl-4-(3-(6-((R)-3-methylpiperazin-1-yl)pyridin-3-yl)-1H-pyrazolo[4,3-d]pyrimidin-5-yl)piperazin-1-yl)(3-fluoropyrrolidin-1-yl)methanone], the IC50 against FGFR3 (UP) was 500 to 2000 nM; on ALK2, below 100 nM; against FGFR1 (UP), 500 to 2000 nM; at FGFR2 (UP) it was 500 to 2000 nM; at ALK2 (aa 147-end) (setting [1]), below 100 nM; at ALK2 (aa 147-end) (setting [2]) it was below 100 nM. For the same molecule, the IC50 on ALK2 (aa 147-end) (setting [3]) was below 100 nM.
`COC(=O)N1C[C@@H](C)N(c2ncc3[nH]nc(-c4ccc(N5CCN(C6CCOCC6)CC5)cc4)c3n2)[C@@H](C)C1` [Example 30, Methyl (3R,5S)-3,5-dimethyl-4-(3-(4-(4-(tetrahydro-2H-pyran-4-yl)piperazin-1-yl)phenyl)-1H-pyrazolo[4,3-d]pyrimidin-5-yl)piperazine-1-carboxylate]: the IC50 at ALK2 is 100 to 500 nM; against FGFR2 (UP) it was 100 to 500 nM; on ALK2 (aa 147-end) (setting [1]), below 100 nM; on ALK2 (aa 147-end) (setting [2]), below 100 nM.
Turning to `COC(=O)N1C[C@@H](C)N(c2ncc3[nH]nc(-c4ccc(N5CCN(C(C)(C)C(=O)O)CC5)cc4)c3n2)[C@@H](C)C1` [Example 31, 2-(4-(4-(5-((2R,6S)-4-(Methoxycarbonyl)-2,6-dimethylpiperazin-1-yl)-1H-pyrazolo[4,3-d]pyrimidin-3-yl)phenyl)piperazin-1-yl)-2-methylpropanoic acid], the IC50 at ALK2 was below 100 nM; on FGFR2 (UP) it was 100 to 500 nM; on ALK2 (aa 147-end) (setting [1]) it was below 100 nM; at ALK2 (aa 147-end) (setting [2]), below 100 nM.
Regarding `COC(=O)N1C[C@@H](C)N(c2ncc3[nH]nc(-c4ccc(N5CCN(C(C)CO)CC5)cc4)c3n2)[C@@H](C)C1` (stereo partly drawn) [Example 29, Methyl (3R,5S)-4-(3-(4-(4-(1-hydroxypropan-2-yl)piperazin-1-yl)phenyl)-1H-pyrazolo[4,3-d]pyrimidin-5-yl)-3,5-dimethylpiperazine-1-carboxylate], the IC50 on ALK2 is below 100 nM; against FGFR2 (UP), 500 to 2000 nM; on ALK2 (aa 147-end) (setting [1]), below 100 nM; at ALK2 (aa 147-end) (setting [2]), below 100 nM.
With `COC(=O)N1C[C@@H](C)N(c2ncc3[nH]nc(-c4ccc(C5CCN(CCO)C5)cc4)c3n2)[C@@H](C)C1` (stereo partly drawn) [Example 28, Methyl (3R,5S)-4-(3-(4-(1-(2-hydroxyethyl)pyrrolidin-3-yl)phenyl)-1H-pyrazolo[4,3-d]pyrimidin-5-yl)-3,5-dimethylpiperazine-1-carboxylate], the IC50 is below 100 nM on ALK2; 500 to 2000 nM on FGFR1 (UP); 100 to 500 nM at FGFR2 (UP); below 100 nM at ALK2 (aa 147-end) (setting [1]); below 100 nM on ALK2 (aa 147-end) (setting [2]).
For `COC(=O)N1C[C@@H](C)N(c2ncc3[nH]nc(-c4ccc(N5CCC(O)CC5)cc4)c3n2)[C@@H](C)C1` [Example 34, Methyl (3R,5S)-4-(3-(4-(4-hydroxypiperidin-1-yl)phenyl)-1H-pyrazolo[4,3-d]pyrimidin-5-yl)-3,5-dimethylpiperazine-1-carboxylate], the IC50 was 500 to 2000 nM at ALK2; above 2000 nM at FGFR1 (UP) (setting [5]); 500 to 2000 nM against FGFR2 (UP); 100 to 500 nM against ALK2 (aa 147-end) (ALK2 3 μM IC50, 3 uM ATP); above 2000 nM on ALK2 (aa 147-end) (setting [3]).
For `COC(=O)N1C[C@@H](C)N(c2ncc3[nH]nc(-c4ccc(N5CCN[C@H](C)C5)nc4)c3n2)[C@@H](C)C1` [Example 17, Methyl (3R,5S)-3,5-dimethyl-4-(3-(6-((R)-3-methylpiperazin-1-yl)pyridin-3-yl)-1H-pyrazolo[4,3-d]pyrimidin-5-yl)piperazine-1-carboxylate], the IC50 on FGFR3 (UP) (setting [4]) is below 100 nM; at ALK2 it was below 100 nM; at FGFR2 (UP) (read-out: FGFR2 (UP) IC50, un-phosphorylated enzyme, ATP near or below Km), below 100 nM; on ALK2 (aa 147-end) (setting [1]), below 100 nM; at ALK2 (aa 147-end) (setting [2]), below 100 nM; at ALK2 (aa 147-end) (setting [3]), below 100 nM.
For the molecule `CNC(=O)c1ccc(-c2n[nH]c3cnc(N4[C@H](C)CN(C(=O)OC)C[C@@H]4C)nc23)cc1` [Example 26, Methyl (3R,5S)-3,5-dimethyl-4-(3-(4-(methylcarbamoyl)phenyl)-1H-pyrazolo[4,3-d]pyrimidin-5-yl)piperazine-1-carboxylate], the IC50 is 100 to 500 nM at FGFR3 (UP); 500 to 2000 nM at FGFR1 (UP); 100 to 500 nM on FGFR2 (UP); below 100 nM on ALK2 (aa 147-end) (setting [1]); above 2000 nM at ALK2 (aa 147-end) (setting [3]).
With `Cn1cc(-c2n[nH]c3cnc(N4CCc5ncccc5C4)nc23)cn1` [Example 40, 6-(3-(1-Methyl-1H-pyrazol-4-yl)-1H-pyrazolo[4,3-d]pyrimidin-5-yl)-5,6,7,8-tetrahydro-1,6-naphthyridine], the IC50 on FGFR3 (UP) (setting [4]) is below 100 nM; in the assay on RT112 cells, 500 to 2000 nM; against FGFR2 (P) it was 100 to 500 nM; against FGFR1 (UP) it was 500 to 2000 nM; on ALK2 (aa 147-end) (ALK2 3 μM IC50, 3 uM ATP) it was 500 to 2000 nM; at ALK2 (aa 147-end) (ALK2 100 μM IC50, 100 uM ATP), 500 to 2000 nM.
